# Measured values from patent US20230087359A1, “CANNABINOID COMPOSITIONS AND METHODS OF USE THEREOF” (DAY THREE LABS MAN[…]., priority 2017, published 2023).
# System: pentobarbital-induced sleep
# Test: Loss Of Righting Reflex (LORR) test, pentobarbital-induced sleep in mice
# Assay type: in vivo, mouse (7-week-old male Balb/C mice)
# [1] = LORR test, IP treatment 30 min before pentobarbital 30 or 40 mg/kg IP, diazepam 3 mg/kg
structure (smiles),measurement,setting,value
CN1C(=O)CN=C(c2ccccc2)c2cc(Cl)ccc21 [diazepam],percentage of mice in treatment group that fell asleep after pentobarbital administration,"Example 1, FIG. 3",92%
same,percentage of subjects with a transient awakening (woke up once) during the sleep session,"Example 1, FIG. 4",25%
same,percentage of subjects with no transient awakenings during the sleep session,"Example 1, FIG. 4",75%
same,percentage of mice in treatment group that fell asleep after pentobarbital administration (response rate),"Example 2, FIG. 7",86%
same,mean sleep duration,[1],60 to 90 min
same,mean sleep onset,[1],3 to 5 min
